How the values were obtained:
hSAECs [1] = assay: TGFβ-induced EMT gene expression in hSAECs by Q-RT-PCR; assay type: cell-based, human
Procedure: (§1) hSAECs culture and induction of the EMT transformation. An immortalized human small airway epithelial cell (hSAEC) line established by infecting primary hSAECs with human telomerase (hTERT) and cyclin-dependent kinase (CDK)-4 retrovirus constructs was obtained from John Minna, UTSW (Ramirez et al., 2004, Cancer. Res. 64:9027-34). The immortalized hSAECs were grown in SAGM small airway epithelial cell growth medium (Lonza, Walkersville, MD) in a humidified 5% CO2 atmosphere. For induction of the EMT, hSAECs were TGFIβ-stimulated for 15 d (10 ng/ml, PeproTech, Rocky Hill, NJ). The small-molecule IKK inhibitor BMS345541 was purchased from Sigma Aldrich and used at 10 μM (Burke et al., 2003, J. Biol. Chem. 278:1450-56).
(§2) Quantitative real-time reverse transcription-PCR (Q-RT-PCR). Total RNA was extracted using acid guanidinium phenol extraction (Tri Reagent; Sigma). For gene expression analyses, 1 μg of RNA was reverse-transcribed using SuperScript III in a 20-μl reaction mixture. The rest of the procedures were as described previously (Brasier et al., 2011, J. Virol. 85:11752-69). The forward and reverse gene-specific Q-RT-PCR primers are listed in Table 1; relative changes in gene expression were quantified using the ΔΔCT method.

[2] = system: 5′ NFκB site of SNAI1, ZEB1, IL-6, and VIM promoters; assay: XChIP / Q-gPCR recruitment of transcriptional elongation complex to EMT gene promoters in hSAECs; assay type: cell-based, human
Procedure: Dual cross-link chromatin immunoprecipitation (XChIP). […] Protein-protein cross-linking was first performed with disuccinimidyl glutarate (2mM, Pierce), followed by protein-DNA cross-linking with formaldehyde. […] Immunoprecipitates were collected with 40 μL protein A magnetic beads (Dynal Inc.), washed, and eluted in 250 μL elution buffer for 15 min at room temperature. Samples were de-cross-linked in 0.2 M NaCl at 65 ° C. for 2 h. The precipitated DNA was phenol/chloroform-extracted, precipitated with 100% ethanol, and dried.
Quantitative real time genomic PCR (Q-gPCR). Gene enrichment in XChIP was determined by Q-gPCR using region-specific PCR primers (Table 2). Standard curves were generated using a dilution series of genomic DNA (from 1 ng to 100 ng) for each primer pair. The fold change of DNA in each immunoprecipitate was determined by normalizing the absolute amount to the input DNA reference and calculating the fold change relative to that amount in unstimulated cells.

[3] = cited from earlier work
Brd4 [4] = target: T1, Brd4 (Homo sapiens, UniProt O60885); conditions: chronic treatment; cited from earlier work
Brd4 [5] = target: T1, Brd4; conditions: cited from earlier work
hSAECs [6] = assay: TGFβ-induced type II EMT in hSAECs, confocal immunofluorescence microscopy; assay type: cell-based, human
Procedure: as §1
Immunostaining and Confocal Immunofluorescence Microscopy. hSAECs were incubated±TGFβ (10 ng/mL) for 15 days, re-plated on glass cover slips pretreated with rat tail collagen (Roche Applied Sciences), and fixed with 4% paraformaldehyde in PBS. Afterwards, the fixed cells were stained with Alexa Fluor® 568 phalloidin (Life Technologies) for cytoplasmic distribution of F-actin and also counterstained with 4′, 6-diamidino-2-phenylindole (DAPI) for nuclear staining. The cells were visualized with a Nikon fluorescence confocal microscope at a magnification of 63×.
For immunofluorescence staining, hSAECs were plated on rat tail collagen-treated cover glasses and stimulated for the indicated times. The cells were fixed with 4% paraformaldehyde in PBS and incubated with 0.1 m ammonium chloride for 10 min. Cells were permeabilized with 0.5% Triton-100, followed by incubation in blocking buffer (5% goat serum, 0.1% IGEPAL CA-630, 0.05% NaN3, and 1% BSA) and incubated with anti-SNAIL1, anti-E-Cadherin, and anti-vimentin antibodies (Abs; Abcam, Santa Cruz, Calif.) incubation buffer (0.1% IGEPAL CA-630, 0.05% NaN3, and 2% BSA) overnight at 4 ° C. After washing, cells were stained with Alexa Fluor 488-conjugated goat anti-rabbit IgG (Life Technologies) in incubation buffer for 1 h, then visualized with a Nikon fluorescence confocal microscope, magnification 63×.

C57BL6/J mice [7] = assay: TGFβ-induced pulmonary fibrosis in mice, lung Q-RT-PCR of fibrotic program; assay type: in vivo; conditions: JQ1 i.p., repetitive TGFβ stimulation
Procedure: as §2
TGFβ-induced pulmonary fibrosis in mice. Male C57BL6/J mice aged 15 weeks were purchased from The Jackson Laboratory (Bar Harbor, Me.) and housed under pathogen-free conditions with food and water ad libitum. Mice were given multiple challenges with 1 μg/mouse of TGFβ every other day for a total of 15 TGFβ treatments. Meanwhile, mice were pre-treated with or without JQ1 (50 mg/kg body weight, i.p.) before TGFβ administration. Ten days after the last TGFβ treatment, bronchoalveolar lavages were obtained for quantifying innate immune cells and measuring cytokine and chemokine secretion; the mice were sacrificed and lung tissues taken for RNA extraction and fixed for histological examination. Whole lungs were inflated under 25 cm H2O pressure with 10% (v/v) neutral buffered formalin through the tracheal cannula and immersed in formalin for at least 24 hours. […]

C57BL6/J mice [8] = assay: TGFβ-induced pulmonary fibrosis in mice, histology and Ashcroft scoring; assay type: in vivo
Procedure: TGFβ-induced pulmonary fibrosis in mice. Male C57BL6/J mice aged 15 weeks were purchased from The Jackson Laboratory (Bar Harbor, Me.) and housed under pathogen-free conditions with food and water ad libitum. Mice were given multiple challenges with 1 μg/mouse of TGFβ every other day for a total of 15 TGFβ treatments. Meanwhile, mice were pre-treated with or without JQ1 (50 mg/kg body weight, i.p.) before TGFβ administration. Ten days after the last TGFβ treatment, bronchoalveolar lavages were obtained for quantifying innate immune cells and measuring cytokine and chemokine secretion; the mice were sacrificed and lung tissues taken for RNA extraction and fixed for histological examination. Whole lungs were inflated under 25 cm H2O pressure with 10% (v/v) neutral buffered formalin through the tracheal cannula and immersed in formalin for at least 24 hours. After being processed into paraffin blocks, the lungs were cut into 5-μm sections and stained either with Masson Trichrome or H&E to assess fibrotic changes in the lungs.
Assessment of levels of pulmonary fibrosis. Pulmonary fibrosis was graded using the Ashcroft scoring method as described (Hubner et al., 2008, Biotechniques. 44:507). In brief, to determine the fibrosis histopathology score for the lung of each mouse, the entire left and right longitudinal lung sections were scored separately (score range, 0 to 9) at ×100 magnification, and the scores were combined (total score range, 0 to 18). […] were intermediate grades assigned on the basis of the predominant histology changes if features described for two distinct grades (as described) were present in the section, to account for the progressive nature of the fibrotic lesion.

GFP-Brd4 = conditions: cited from earlier work
[9] = ± BMS-345541 10 μM, TGFβ 0 or 15 d
[10] = JQ1 10 μM, TGFβ 10 ng/mL 15 d, hSAECs
[11] = JQ1 10 μM, TGFβ 10 ng/mL, 15 d time course
[12] = JQ1 i.p. (100 mg/kg in FIG. 11 legend, 50 mg/kg in methods), repetitive intranasal TGFβ 1 μg/mouse

Cc1ccc2nc(NCCN)c3ncc(C)n3c2c1 [BMS-345541]
TGFβ-induced enhanced mesenchymal gene expression (hSAECs [1]; IKK kinase inhibitor BMS-345541, hSAECs): inhibited
BRD4 recruitment to EMT gene promoters (SNAI1, ZEB1, IL-6, VIM) [2, 9]: inhibited
CDK9 recruitment to EMT gene promoters (SNAI1, ZEB1, IL-6, VIM) [2, 9]: inhibited
RelA recruitment to EMT gene promoters (SNAI1, ZEB1, IL-6, VIM) [2, 9]: inhibited
phospho-Ser 2 CTD RNA Pol II recruitment to EMT gene promoters (SNAI1, ZEB1, IL-6, VIM) [2, 9]: inhibited

CCC(=O)O[C@]1(C(=O)SCF)[C@H](C)C[C@H]2[C@@H]3C[C@H](F)C4=CC(=O)C=C[C@]4(C)[C@@]3(F)[C@@H](O)C[C@@]21C [Fluticasone propionate]
solubility in 95% ethanol ([3]; 95% ethanol): slightly soluble
solubility in dimethyl sulfoxide ([3]; dimethyl sulfoxide): freely soluble
solubility in dimethylformamide ([3]; dimethylformamide): freely soluble
solubility in methanol ([3]; methanol): slightly soluble
solubility in water ([3]; water): practically insoluble

Cc1sc2c(c1C)C(c1ccc(Cl)cc1)=NC(CC(=O)OC(C)(C)C)c1nnc(C)n1-2 (centres unmarked) [JQ1]
atherogenic responses and atherosclerosis (Brd4 [4]): attenuates
recruitment and binding of Brd4 to TNFα and E-selectin promoter elements (Brd4 [5]): inhibits
the EMT (Type II EMT) (hSAECs [6]; JQ1 10 μM ± TGFβ 10 ng/mL 15 days, FIG. 9A): blocks
TGFβ-induced acquisition of elongated shape (hSAECs [6]; [10]): blocked
TGFβ-induced stress fiber formation (hSAECs [6]; [10]): blocked
TGFβ-induced upregulation and cytosolic redistribution of SNAI1 (hSAECs [6]; [10]): blocked
TGFβ-induced upregulation and cytosolic redistribution of VIM (hSAECs [6]; [10]): blocked
expression and cellular distribution of CDH1 (hSAECs [6]; [10]): maintained
TGFβ-induced enhanced mesenchymal gene expression (hSAECs [1]; BRD4 inhibitor JQ1, hSAECs): significantly inhibited
TGFβ-induced EMT gene expression in hSAECs (hSAECs [1]; JQ1 10 μM ± TGFβ 10 ng/mL 15 d, FIG. 9B): blocks
CDH1 expression (mRNA) (hSAECs [1]; JQ1 10 μM, TGFβ 10 ng/mL, 15 d, not to levels seen in normal hSAECs): partially maintained
TGFβ-induced expression of FN1 mRNA (hSAECs [1]; [11]): significantly blocked
TGFβ-induced expression of IL-6 mRNA (hSAECs [1]; [11]): significantly blocked
TGFβ-induced expression of SNAI1 mRNA (hSAECs [1]; [11]): significantly blocked
TGFβ-induced expression of VIM mRNA (hSAECs [1]; [11]): significantly blocked
TGFβ-induced expression of ZEB1 mRNA (hSAECs [1]; [11]): significantly blocked
TGFβ-induced pulmonary fibrotic program (mSNAI1, mFN-1, mαSMA, mCol1A1, mIL-6 mRNA in lung) (C57BL6/J mice [7]): significantly inhibited
TGFβ-induced airway fibrosis (C57BL6/J mice [8]; [12]): effectively blocked
lung histology (Masson Trichrome) (C57BL6/J mice [8]; [12]): histologically normal
combined Ashcroft score (C57BL6/J mice [8]; JQ1 mice with chronic TGFβ treatment vs chronic TGFβ alone (score 8), total score range 0 to 18): significantly lower
recovery time in FRAP assays using GFP-Brd4 (GFP-Brd4): accelerates
CDK9 recruitment to SNAI1 ([2]; ± JQ1, TGFβ 0 or 15 days): significantly disrupted
RelA recruitment to SNAI1 ([2]; ± JQ1, TGFβ 0 or 15 days): significantly disrupted
TGFβ-induced recruitment of BRD4 to the 5′NFκB site of SNAI1 ([2]; ± JQ1, TGFβ 0 or 15 days): significantly attenuated
phospho-Ser 2 CTD RNA Pol II recruitment to SNAI1 ([2]; ± JQ1, TGFβ 0 or 15 days): significantly disrupted
